# According to ChEMBL document CHEMBL1201862, “PubChem BioAssay data set” (2004):
# Active and inactive are the calls of the source.
# Columns and labels:
# [1] = target: Tyrosyl-DNA phosphodiesterase 2 (Homo sapiens, UniProt O95551); assay: potency against TDP2 phosphodiesterase activity – biochemical, epi absorbance, IC50, dose response (AID 743297)
# Caspase-3 = target: T1, Caspase-3 (Homo sapiens, UniProt P42574); format: functional;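 also: Dose-response selectivity test against caspase-3 for candidate inhibitors of sentrin-specific proteases (SENPs)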
# T1 sequence (P42574 whole entry): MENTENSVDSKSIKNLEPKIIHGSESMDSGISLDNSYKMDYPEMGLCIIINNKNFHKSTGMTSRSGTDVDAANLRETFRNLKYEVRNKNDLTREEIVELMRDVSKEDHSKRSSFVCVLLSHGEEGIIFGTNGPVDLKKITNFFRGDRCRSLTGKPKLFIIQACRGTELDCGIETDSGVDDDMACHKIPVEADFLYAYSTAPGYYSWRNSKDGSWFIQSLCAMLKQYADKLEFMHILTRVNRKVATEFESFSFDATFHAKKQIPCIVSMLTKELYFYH
# [2] = target: T2, Sentrin-specific protease 6 (Homo sapiens, UniProt Q9GZR1); format: functional;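 also: Luminescence-based dose-response confirmatory assay of SENP6 inhibition, following up an ultra-high-throughput screen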
# T2 sequence (Q9GZR1 whole entry): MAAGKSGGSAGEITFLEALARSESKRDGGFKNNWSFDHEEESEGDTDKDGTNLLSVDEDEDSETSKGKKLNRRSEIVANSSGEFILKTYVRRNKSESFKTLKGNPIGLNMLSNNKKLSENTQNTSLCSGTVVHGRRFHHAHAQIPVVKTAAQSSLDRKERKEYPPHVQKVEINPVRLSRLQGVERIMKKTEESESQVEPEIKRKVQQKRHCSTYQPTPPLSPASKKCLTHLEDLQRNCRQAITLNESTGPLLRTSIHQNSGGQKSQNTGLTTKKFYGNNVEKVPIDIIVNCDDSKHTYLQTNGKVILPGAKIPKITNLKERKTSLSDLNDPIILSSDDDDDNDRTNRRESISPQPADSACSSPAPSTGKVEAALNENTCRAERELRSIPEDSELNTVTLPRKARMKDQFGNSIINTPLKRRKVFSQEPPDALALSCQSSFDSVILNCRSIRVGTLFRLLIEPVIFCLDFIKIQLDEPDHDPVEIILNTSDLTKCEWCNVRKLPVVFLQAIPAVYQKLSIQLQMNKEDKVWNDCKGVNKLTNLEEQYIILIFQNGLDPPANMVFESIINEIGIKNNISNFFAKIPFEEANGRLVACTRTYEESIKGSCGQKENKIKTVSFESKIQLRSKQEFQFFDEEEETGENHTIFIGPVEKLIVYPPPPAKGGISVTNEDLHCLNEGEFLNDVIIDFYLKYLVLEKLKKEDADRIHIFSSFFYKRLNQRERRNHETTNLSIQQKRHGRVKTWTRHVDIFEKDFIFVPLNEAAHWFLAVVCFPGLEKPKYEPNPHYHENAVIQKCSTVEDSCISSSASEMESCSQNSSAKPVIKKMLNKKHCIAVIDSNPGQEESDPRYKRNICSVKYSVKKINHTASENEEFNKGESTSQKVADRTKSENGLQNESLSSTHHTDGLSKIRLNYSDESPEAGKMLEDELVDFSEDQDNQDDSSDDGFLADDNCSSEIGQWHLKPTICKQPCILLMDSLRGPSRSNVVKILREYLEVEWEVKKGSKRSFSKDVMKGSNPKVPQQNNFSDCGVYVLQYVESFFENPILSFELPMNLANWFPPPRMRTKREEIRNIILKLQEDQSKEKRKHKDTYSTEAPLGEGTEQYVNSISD
# Caspase-9 = Caspase-9 (Homo sapiens, UniProt P55211); assay: inhibitors of purified CASP9 protease – biochemical, fluorescence, plate reader, cherry-picked samples, selectivity assay for caspase-6 inhibitor project, dose response (AID 743293)
# [3] = target: T3, Sentrin-specific protease 7 (Homo sapiens, UniProt Q9BQF6); format: functional;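 also: Luminescence-based dose-response confirmation of ultra-high-throughput screening hits, measuring inhibition of SENP7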
# T3 sequence (Q9BQF6 whole entry): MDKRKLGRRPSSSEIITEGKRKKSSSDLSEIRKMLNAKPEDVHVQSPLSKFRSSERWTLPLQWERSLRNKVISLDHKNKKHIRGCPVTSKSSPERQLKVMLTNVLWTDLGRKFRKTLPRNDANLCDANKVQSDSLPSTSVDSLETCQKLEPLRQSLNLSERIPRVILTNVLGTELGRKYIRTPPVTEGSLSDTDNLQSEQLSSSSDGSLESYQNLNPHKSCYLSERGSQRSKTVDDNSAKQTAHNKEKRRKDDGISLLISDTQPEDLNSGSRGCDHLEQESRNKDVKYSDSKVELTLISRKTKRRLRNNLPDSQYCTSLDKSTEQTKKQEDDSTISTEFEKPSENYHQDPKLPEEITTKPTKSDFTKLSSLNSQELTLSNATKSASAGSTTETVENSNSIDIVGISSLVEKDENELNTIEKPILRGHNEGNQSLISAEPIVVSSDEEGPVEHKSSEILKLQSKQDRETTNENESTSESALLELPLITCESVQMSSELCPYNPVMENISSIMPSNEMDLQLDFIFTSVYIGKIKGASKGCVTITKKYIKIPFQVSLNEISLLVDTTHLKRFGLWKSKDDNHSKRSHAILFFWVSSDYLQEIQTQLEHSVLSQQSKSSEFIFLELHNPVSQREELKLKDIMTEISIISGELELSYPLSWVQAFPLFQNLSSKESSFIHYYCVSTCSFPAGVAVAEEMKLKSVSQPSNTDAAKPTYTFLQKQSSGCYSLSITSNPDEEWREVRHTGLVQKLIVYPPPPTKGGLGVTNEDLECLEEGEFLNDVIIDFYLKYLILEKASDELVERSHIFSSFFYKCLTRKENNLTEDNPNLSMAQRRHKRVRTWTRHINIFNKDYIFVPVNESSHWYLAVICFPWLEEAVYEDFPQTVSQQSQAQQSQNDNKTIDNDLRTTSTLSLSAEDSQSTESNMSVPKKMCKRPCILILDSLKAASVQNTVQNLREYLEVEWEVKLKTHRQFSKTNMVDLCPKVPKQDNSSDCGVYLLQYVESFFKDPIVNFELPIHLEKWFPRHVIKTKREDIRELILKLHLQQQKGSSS
# [4] = target: T4, Mitochondrial peptide methionine sulfoxide reductase (Bos taurus, UniProt P54149); assay: Absorbance-based biochemical high throughput dose response assay for activators of Methionine sulfoxide reductase A (MsrA).; format: functional
# T4 sequence (P54149 whole entry): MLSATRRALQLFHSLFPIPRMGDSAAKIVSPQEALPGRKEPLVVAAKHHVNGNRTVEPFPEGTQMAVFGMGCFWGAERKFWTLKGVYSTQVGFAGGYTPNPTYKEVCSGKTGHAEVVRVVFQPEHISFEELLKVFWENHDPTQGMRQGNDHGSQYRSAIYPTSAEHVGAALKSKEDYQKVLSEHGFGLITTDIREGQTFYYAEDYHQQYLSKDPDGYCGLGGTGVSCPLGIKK
# Caspase-6 = target: T5, Caspase-6 (Homo sapiens, UniProt P55212); assay: inhibition of CASP6 peptide cleavage – biochemical, VEID-R110 fluorescence, cherry-pick, dose response (AID 720632)
# T5 sequence (P55212 whole entry): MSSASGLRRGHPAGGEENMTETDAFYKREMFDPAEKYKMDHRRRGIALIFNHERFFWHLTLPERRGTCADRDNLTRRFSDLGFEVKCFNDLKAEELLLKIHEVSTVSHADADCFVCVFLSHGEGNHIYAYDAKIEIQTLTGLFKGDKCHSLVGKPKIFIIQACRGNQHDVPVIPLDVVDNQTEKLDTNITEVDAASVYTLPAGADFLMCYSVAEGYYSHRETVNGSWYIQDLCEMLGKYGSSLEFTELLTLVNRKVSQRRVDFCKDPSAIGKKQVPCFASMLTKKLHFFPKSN
# [5] = target: T6, Sentrin-specific protease 8 (Homo sapiens, UniProt Q96LD8); format: functional;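 also: luminescence read-out of SENP8 inhibition, dose-response confirmation following an ultra-high-throughput screen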
# T6 sequence (Q96LD8 whole entry): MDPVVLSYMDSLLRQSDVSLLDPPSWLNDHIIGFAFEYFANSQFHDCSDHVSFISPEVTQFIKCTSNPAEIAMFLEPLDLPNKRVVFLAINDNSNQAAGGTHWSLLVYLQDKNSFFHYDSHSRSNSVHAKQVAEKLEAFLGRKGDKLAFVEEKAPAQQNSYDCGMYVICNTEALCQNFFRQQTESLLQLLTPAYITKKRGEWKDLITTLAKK
# Caspase-8 = Caspase-8 (Homo sapiens, UniProt Q14790); assay: inhibitors of purified CASP8 protease – biochemical, Z-IETD-R110 fluorescence, cherry-picked samples, selectivity assay for caspase-6 inhibitor project, dose response (AID 743294)
# [6] = Dd2 parasite growth inhibition in erythrocytes – SYBR Green, dry powder samples, set 9, dose response (AID 1159568); format: functional, cell-based
# Phospholipase D2 = Phospholipase D2 (Homo sapiens, UniProt O14939); assay: PLD2 Cellular Concentration Response Study.; format: functional
# Phospholipase D1 = Phospholipase D1 (Homo sapiens, UniProt Q13393); assay: PLD1 Cellular Concentration Response Study.; format: functional
# [7] = ATP-based viability loss in HEK293T cells – cell-based, CellTiter-Glo luminescence, dry powder, set 2, cytotoxicity control, dose response (AID 720595); format: functional; settings: HEK293
# Nonstructural protein 1 = Nonstructural protein 1 (Influenza A virus, UniProt Q194T2); format: functional, Influenza A virus (A/California/07/2009(H1N1))
# [8] = target: RNA-editing ligase 1, mitochondrial (Trypanosoma brucei brucei, UniProt P86926); assay: inhibition of trypanosome RNA editing ligase – biochemical, fluorescence, Trypanosoma brucei, dose response (AID 1117295); format: functional
# [9] = Luminescence Cell-Based Dose Response HTS to Identify Inhibitors of 5'UTR Stem-Loop Driven Prion Protein mRNA Translation in H4 Neuroglioblastoma Cells. [Related pubchem assays: 1827 (Project Summary), 1813 (Primary HTS)]; format: functional
# [10] = alpha-synuclein stem-loop luciferase translation blockers – H4 neuroglioma cells, luminescence, confirmation (AID 1988); format: functional, cell-based
# [11] = luciferase reporter signal suppression in cells – H4 neuroglioma cells, luminescence, dose response (AID 1990); format: functional, cell-based
# [12] = target: T7, Muscarinic acetylcholine receptor M5 (Homo sapiens, UniProt P08912); assay: potentiation of ACh response at human M5 – cell-based, concentration-response curve, dose response (AID 651878); format: functional
# [13] = target: T7, Muscarinic acetylcholine receptor M5; assay: agonist curve shift by M5 PAMs – cell-based, calcium fluorescence, mechanism study (AID 651776); format: functional
# [14] = target: Muscarinic acetylcholine receptor M5 (Rattus norvegicus, UniProt P08911); assay: Discovery of Selective Novel Positive Allosteric Modulators (PAM) of the Muscarinic Receptor (M5) in CHO cells expressing Rattus Norvegicus M5 receptor.; format: functional, cell-based
# [15] = target: Metabotropic glutamate receptor 7 (Homo sapiens, UniProt Q14831); assay: potentiation of glutamate EC20 at mGlu7 – cell-based, calcium mobilization, Galpha15, dose response (AID 743384); format: functional
# [16] = target: T8, Oxysterols receptor LXR-beta (Homo sapiens, UniProt P55055); format: functional, cell-based;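 also: Cell-based luminescence dose-response assay of agonist activity at LXR, run as a confirmatory counterscreen to a daf-12 agonist screen; agonist potency from rising luciferase signal of a Gal4-LXR reporter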
# T8 sequence (P55055 whole entry): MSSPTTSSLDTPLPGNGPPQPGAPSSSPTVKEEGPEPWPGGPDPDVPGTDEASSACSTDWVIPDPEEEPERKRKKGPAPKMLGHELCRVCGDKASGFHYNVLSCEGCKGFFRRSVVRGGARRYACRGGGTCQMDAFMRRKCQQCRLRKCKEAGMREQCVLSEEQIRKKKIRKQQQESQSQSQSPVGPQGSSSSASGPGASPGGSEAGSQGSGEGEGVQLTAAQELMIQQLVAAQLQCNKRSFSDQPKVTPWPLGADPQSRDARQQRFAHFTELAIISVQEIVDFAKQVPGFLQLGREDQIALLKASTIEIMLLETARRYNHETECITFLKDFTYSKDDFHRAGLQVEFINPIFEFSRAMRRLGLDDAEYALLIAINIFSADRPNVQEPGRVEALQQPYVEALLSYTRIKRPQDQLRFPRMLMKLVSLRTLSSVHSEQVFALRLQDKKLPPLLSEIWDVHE
# [17] = Luminescence-based cell-based high throughput dose response assay to identify activators of the DAF-12 from the parasite S. stercoralis (ssDAF-12).; format: functional
# [18] = target: T8, Oxysterols receptor LXR-beta; assay: LXR agonists, Gal4 luciferase reporter, dose response, counter-screen for ssDAF-12 agonist project, cell-based, luminescence, HEK293, S. stercoralis campaign (AID 720737); format: functional; settings: read-out: IC50 (the source's name)
# T7 sequence (P08912 whole entry): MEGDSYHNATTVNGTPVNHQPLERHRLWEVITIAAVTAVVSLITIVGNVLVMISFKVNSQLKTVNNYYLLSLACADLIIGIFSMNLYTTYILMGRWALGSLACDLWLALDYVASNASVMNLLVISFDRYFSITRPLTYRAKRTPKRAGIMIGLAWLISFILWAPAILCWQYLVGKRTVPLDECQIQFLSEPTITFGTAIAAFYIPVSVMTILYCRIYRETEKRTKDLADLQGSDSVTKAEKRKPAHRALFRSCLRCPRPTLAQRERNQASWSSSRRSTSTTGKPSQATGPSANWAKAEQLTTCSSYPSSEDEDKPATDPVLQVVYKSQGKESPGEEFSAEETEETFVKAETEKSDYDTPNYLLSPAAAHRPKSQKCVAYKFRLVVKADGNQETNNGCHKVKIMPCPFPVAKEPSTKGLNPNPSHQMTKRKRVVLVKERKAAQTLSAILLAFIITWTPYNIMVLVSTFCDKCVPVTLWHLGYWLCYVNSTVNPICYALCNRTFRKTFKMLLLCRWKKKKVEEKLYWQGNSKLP
# Sequence of Caspase-8 (Q14790 217-374 limits assumed): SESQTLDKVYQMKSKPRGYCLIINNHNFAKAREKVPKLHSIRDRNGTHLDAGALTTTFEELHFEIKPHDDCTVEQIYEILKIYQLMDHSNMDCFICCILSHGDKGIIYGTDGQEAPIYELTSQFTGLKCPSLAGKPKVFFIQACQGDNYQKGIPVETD
# Sequence of Caspase-8 (Q14790 385-479 limits assumed): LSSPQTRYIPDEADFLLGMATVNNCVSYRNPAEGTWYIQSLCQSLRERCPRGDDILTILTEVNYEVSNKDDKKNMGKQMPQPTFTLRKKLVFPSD
# Sequence of Nonstructural protein 1 (Q194T2 whole entry): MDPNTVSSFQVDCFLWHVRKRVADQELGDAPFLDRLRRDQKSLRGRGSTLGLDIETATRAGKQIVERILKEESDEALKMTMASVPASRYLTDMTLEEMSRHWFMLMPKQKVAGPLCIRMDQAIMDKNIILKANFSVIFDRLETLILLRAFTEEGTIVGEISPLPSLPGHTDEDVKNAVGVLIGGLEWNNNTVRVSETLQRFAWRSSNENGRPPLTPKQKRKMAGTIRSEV
# Sequence of RNA-editing ligase 1, mitochondrial (P86926 whole entry): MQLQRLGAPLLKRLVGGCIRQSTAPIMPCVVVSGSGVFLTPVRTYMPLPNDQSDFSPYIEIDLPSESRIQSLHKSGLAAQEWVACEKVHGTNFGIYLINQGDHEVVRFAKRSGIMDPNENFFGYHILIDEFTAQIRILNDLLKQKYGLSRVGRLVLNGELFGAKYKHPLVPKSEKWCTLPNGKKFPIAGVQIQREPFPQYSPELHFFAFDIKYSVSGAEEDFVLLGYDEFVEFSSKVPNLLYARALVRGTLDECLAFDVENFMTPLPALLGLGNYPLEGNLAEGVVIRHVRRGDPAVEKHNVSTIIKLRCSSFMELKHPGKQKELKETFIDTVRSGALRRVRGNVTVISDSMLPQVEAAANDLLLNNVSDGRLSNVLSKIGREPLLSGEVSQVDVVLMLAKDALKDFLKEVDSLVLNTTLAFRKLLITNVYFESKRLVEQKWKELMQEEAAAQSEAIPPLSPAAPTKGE
# Sequence of Phospholipase D1 (Q13393 whole entry): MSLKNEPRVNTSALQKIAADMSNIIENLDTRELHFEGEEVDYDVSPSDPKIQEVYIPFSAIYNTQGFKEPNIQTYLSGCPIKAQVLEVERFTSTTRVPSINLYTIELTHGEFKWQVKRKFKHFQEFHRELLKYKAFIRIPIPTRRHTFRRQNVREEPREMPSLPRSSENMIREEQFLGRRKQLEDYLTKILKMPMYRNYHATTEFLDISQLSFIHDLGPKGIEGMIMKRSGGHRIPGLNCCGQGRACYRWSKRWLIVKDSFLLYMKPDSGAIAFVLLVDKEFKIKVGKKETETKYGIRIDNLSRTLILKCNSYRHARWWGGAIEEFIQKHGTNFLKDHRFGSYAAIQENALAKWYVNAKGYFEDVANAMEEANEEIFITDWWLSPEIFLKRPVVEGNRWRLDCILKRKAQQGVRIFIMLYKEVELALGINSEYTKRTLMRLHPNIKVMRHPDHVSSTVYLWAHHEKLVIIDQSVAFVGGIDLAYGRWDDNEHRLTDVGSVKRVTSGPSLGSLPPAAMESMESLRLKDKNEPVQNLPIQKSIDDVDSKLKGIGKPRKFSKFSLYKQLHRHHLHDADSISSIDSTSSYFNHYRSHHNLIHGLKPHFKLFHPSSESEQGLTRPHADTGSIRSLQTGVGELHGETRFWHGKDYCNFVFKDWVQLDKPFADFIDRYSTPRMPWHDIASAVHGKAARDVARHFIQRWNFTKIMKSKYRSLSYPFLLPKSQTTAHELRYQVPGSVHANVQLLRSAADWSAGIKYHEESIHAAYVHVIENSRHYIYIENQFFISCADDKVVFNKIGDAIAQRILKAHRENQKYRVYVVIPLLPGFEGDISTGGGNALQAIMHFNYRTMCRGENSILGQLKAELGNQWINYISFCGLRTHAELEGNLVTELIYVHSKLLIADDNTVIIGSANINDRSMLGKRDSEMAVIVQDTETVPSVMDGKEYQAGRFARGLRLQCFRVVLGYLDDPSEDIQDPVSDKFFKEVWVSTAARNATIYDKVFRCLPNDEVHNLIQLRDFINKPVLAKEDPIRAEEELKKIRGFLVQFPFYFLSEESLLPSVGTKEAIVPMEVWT
# Sequence of Tyrosyl-DNA phosphodiesterase 2 (O95551 whole entry): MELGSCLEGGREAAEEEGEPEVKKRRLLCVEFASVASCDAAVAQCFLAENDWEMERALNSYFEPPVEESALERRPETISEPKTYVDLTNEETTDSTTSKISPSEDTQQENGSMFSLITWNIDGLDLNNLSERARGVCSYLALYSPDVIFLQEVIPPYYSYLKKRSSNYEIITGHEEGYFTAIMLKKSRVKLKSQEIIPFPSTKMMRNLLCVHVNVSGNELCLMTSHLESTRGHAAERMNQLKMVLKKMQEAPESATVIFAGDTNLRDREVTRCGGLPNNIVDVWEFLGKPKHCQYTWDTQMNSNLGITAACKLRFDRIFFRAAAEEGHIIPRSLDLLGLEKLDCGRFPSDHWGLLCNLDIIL
# Sequence of Phospholipase D2 (O14939 whole entry): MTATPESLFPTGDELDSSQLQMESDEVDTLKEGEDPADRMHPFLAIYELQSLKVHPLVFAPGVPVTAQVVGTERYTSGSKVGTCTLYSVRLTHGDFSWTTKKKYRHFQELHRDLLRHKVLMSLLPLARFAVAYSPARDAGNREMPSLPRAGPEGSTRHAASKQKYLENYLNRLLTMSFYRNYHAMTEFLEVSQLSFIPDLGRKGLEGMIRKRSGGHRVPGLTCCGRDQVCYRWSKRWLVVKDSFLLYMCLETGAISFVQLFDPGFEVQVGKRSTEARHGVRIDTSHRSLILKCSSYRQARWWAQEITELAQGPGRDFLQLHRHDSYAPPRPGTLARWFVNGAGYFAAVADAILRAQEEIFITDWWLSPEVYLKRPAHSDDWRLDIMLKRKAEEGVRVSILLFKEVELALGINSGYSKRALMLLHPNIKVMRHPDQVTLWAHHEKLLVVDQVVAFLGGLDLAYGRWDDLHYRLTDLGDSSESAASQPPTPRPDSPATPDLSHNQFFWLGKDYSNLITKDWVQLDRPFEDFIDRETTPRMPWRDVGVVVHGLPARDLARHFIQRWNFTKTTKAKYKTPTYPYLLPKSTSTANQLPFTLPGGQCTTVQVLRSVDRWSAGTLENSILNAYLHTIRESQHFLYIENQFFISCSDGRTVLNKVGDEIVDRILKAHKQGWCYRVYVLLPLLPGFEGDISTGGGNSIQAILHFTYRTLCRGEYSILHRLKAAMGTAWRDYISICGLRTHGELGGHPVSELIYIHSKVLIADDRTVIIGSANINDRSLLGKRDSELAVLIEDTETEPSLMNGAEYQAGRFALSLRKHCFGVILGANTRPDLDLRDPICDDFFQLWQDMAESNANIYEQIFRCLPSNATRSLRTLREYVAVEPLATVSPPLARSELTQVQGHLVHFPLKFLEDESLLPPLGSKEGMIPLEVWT
# Sequence of Metabotropic glutamate receptor 7 (Q14831 whole entry, the tested form may be a part): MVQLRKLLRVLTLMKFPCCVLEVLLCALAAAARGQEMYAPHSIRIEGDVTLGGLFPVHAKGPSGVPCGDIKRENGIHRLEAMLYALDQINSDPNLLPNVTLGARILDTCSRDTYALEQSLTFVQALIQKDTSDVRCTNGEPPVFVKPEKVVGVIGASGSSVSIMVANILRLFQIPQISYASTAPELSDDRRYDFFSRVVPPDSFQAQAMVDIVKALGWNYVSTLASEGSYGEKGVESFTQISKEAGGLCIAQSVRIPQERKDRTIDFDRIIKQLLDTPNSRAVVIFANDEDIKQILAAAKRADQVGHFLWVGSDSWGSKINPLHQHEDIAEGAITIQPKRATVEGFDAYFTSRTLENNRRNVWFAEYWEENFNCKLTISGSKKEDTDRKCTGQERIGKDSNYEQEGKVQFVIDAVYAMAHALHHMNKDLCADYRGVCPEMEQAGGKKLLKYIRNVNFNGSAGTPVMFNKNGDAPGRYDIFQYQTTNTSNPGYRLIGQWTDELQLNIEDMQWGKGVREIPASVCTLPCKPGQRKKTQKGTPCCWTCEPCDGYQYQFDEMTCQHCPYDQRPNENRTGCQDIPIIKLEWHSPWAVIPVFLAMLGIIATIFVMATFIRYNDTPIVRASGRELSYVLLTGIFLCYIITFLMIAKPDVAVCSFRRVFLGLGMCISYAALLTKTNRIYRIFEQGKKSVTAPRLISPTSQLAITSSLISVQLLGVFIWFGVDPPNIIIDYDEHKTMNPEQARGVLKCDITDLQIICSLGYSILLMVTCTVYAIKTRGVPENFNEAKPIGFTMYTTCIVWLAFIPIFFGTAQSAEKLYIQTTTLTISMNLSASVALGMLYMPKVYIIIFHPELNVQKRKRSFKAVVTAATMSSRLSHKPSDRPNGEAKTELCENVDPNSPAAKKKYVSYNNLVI
structure (smiles),measurement,setting,value
COc1cc(NC(=O)COC(=O)c2ccc([N+](=O)[O-])s2)cc(OC)c1OC,IC50,[1],48.3 µM (inactive)
same,IC50,Caspase-3,8.45 µM (active)
same,IC50,[2],3.82 µM (active)
same,AC50,Caspase-9,21.5 µM (active)
same,IC50,[3],5.51 µM (active)
same,EC50,[4],63.6 µM (inactive)
same,AC50,Caspase-6,2.44 µM (active)
same,IC50,[5],3.88 µM (active)
same,AC50,Caspase-8,20.4 µM (active)
CC(C)NC(=O)NCC[C@@H]1CC[C@H](NS(=O)(=O)c2ccc(Oc3ccccc3)cc2)[C@@H](CO)O1,AC50,[6],32.1 µM (active)
O=C(NCCN1CCC2(CC1)C(=O)NCN2Cc1ccccn1)c1ccc2ccccc2c1,IC50,Phospholipase D2,0.08 µM (active)
same,IC50,Phospholipase D1,2.63 µM (active)
COC(=O)Cc1cc(O)n(-c2nc3ccccc3[nH]2)n1,AC50,[7],30.4 µM (active)
same,IC50,Nonstructural protein 1,12.5 µM (active)
O=c1cc(CN2CCc3ccccc32)nc2sccn12,IC50,[8],22.9 µM (inactive)
same,EC50,[9],0.231 µM (active)
same,EC50,[10],10.9 µM (active)
same,EC50,[11],18.2 µM (active)
O=C1C(=O)N(CCOc2ccccc2)c2ccc(OC(F)(F)F)cc21,EC50,[12],0.55 µM
same,EC50,[13],51.6 µM (active)
same,EC50,[14],0.466 µM
COc1ccc(SCC(=O)c2cc(C)n(-c3ccc(OC(F)F)cc3)c2C)cc1,EC50,[15],3.16 µM (active)
O=C(Nc1nc2ccccc2[nH]1)Nc1ccccc1F,EC50,[16],> 67.5 µM (inactive)
same,IC50,[17],> 67.5 µM (inactive)
same,IC50,Caspase-3,18.5 µM (active)
same,IC50,[2],10.6 µM (active)
same,EC50,cells,> 67.5 µM (inactive)
same,IC50,[3],7.28 µM (active)
same,EC50,[18],> 67.5 µM (inactive)
same,IC50,[5],14.5 µM (active)
